This test in a line: Inhibition of C3b activation relative to compstatin.

Positions of bridges follow the written chain, without caps; N, C: chain ends. Non-standard residues stand in square brackets, D forms with d. Residues, ends and D or L forms follow the SMILES beside them. Abu = CC[C@H](N)C(=O)O

Compound `CC[C@H](C)[C@H](NC(C)=O)C(=O)N[C@H]1CSSC[C@@H](C(=O)N[C@H](C(N)=O)[C@@H](C)O)NC(=O)[C@H](CCCNC(=N)N)NC(=O)[C@H](Cc2cnc[nH]2)NC(=O)[C@H](Cc2cnc[nH]2)NC(=O)CNC(=O)[C@H](Cc2c[nH]c3ccccc23)NC(=O)[C@H](CC(=O)O)NC(=O)[C@H](CC(N)=O)NC(=O)[C@H](C(C)C)NC(=O)[C@H](CC(C)C)NC1=O` (Ac-ICLVNDWGHHRCT-NH2; disulfide 2-12) yielded a logIC50 of 0.16. Under `CC[C@H](C)[C@H](NC(C)=O)C(=O)N[C@H]1CSSC[C@@H](C(=O)N[C@H](C(N)=O)[C@@H](C)O)NC(=O)[C@H](CCCNC(=N)N)NC(=O)[C@H](Cc2cnc[nH]2)NC(=O)[C@H](Cc2cnc[nH]2)NC(=O)CNC(=O)[C@H](Cc2c[nH]c3ccccc23)NC(=O)[C@H](CC(=O)O)NC(=O)[C@H](CCC(N)=O)NC(=O)[C@H](C(C)C)NC(=O)[C@H](CC(C)C)NC1=O` (Ac-ICLVQDWGHHRCT-NH2; disulfide 2-12) stands 0.079. The same measure for `CC[C@H](C)[C@H](NC(=O)[C@@H]1CSSC[C@H](NC(=O)[C@@H](NC(C)=O)[C@@H](C)CC)C(=O)N[C@@H](C(C)C)C(=O)N[C@@H](C)C(=O)N[C@@H](CCC(N)=O)C(=O)N[C@@H](CC(=O)O)C(=O)N[C@@H](Cc2c[nH]c3ccccc23)C(=O)NCC(=O)N[C@@H](C)C(=O)N[C@@H](Cc2cnc[nH]2)C(=O)N[C@@H](CCCNC(=N)N)C(=O)N1)C(N)=O` (Ac-ICVAQDWGAHRCI-NH2; disulfide 2-12): 0.477. Under `CC[C@H](C)[C@H](NC(C)=O)C(=O)N[C@H]1CSSC[C@@H](C(=O)N[C@H](C(N)=O)[C@@H](C)O)NC(=O)[C@H](CCCNC(=N)N)NC(=O)[C@H](Cc2cnc[nH]2)NC(=O)[C@H](Cc2cnc[nH]2)NC(=O)CNC(=O)[C@H](Cc2c[nH]c3ccccc23)NC(=O)[C@H](CC(=O)O)NC(=O)[C@H](CCC(N)=O)NC(=O)[C@H](Cc2ccccc2)NC(=O)[C@H](C(C)C)NC1=O` (Ac-ICVFQDWGHHRCT-NH2; disulfide 2-12) stands 0.721. Consider `CC[C@H](C)[C@H](NC(C)=O)C(=O)N[C@H]1CSSC[C@@H](C(=O)N[C@H](C(N)=O)[C@@H](C)O)NC(=O)[C@H](CCCNC(=N)N)NC(=O)[C@H](Cc2cnc[nH]2)NC(=O)[C@H](Cc2cnc[nH]2)NC(=O)CNC(=O)[C@H](Cc2c[nH]c3ccccc23)NC(=O)[C@H](CC(=O)O)NC(=O)[C@H](CCC(N)=O)NC(=O)[C@H](Cc2cnc[nH]2)NC(=O)[C@H](C(C)C)NC1=O` (Ac-ICVHQDWGHHRCT-NH2; disulfide 2-12), for which the logIC50 is 0.708. Under `CC[C@H](C)[C@H](NC(C)=O)C(=O)N[C@H]1CSSC[C@@H](C(=O)N[C@H](C(N)=O)[C@@H](C)O)NC(=O)[C@H](CCCNC(=N)N)NC(=O)[C@H](Cc2cnc[nH]2)NC(=O)[C@H](Cc2cnc[nH]2)NC(=O)CNC(=O)[C@H](Cc2c[nH]c3ccccc23)NC(=O)[C@H](CC(=O)O)NC(=O)[C@H](CCC(N)=O)NC(=O)[C@H](CO)NC(=O)[C@H](C(C)C)NC1=O` (Ac-ICVSQDWGHHRCT-NH2; disulfide 2-12) stands 0.022; under `CC[C@H](C)[C@H](NC(C)=O)C(=O)N[C@H]1CSSC[C@@H](C(=O)N[C@H](C(N)=O)[C@@H](C)O)NC(=O)[C@H](C)NC(=O)[C@H](Cc2cnc[nH]2)NC(=O)[C@H](Cc2cnc[nH]2)NC(=O)CNC(=O)[C@H](Cc2c[nH]c3ccccc23)NC(=O)[C@H](CC(=O)O)NC(=O)[C@H](CC(N)=O)NC(=O)[C@H](C(C)C)NC(=O)[C@H](C(C)C)NC1=O` (Ac-ICVVNDWGHHACT-NH2; disulfide 2-12), -0.699; under `CC[C@H](C)[C@H](NC(C)=O)C(=O)N[C@H]1CSSC[C@@H](C(=O)N[C@H](C(N)=O)[C@@H](C)O)NC(=O)[C@H](CCCNC(=N)N)NC(=O)[C@H](Cc2cnc[nH]2)NC(=O)[C@H](Cc2cnc[nH]2)NC(=O)CNC(=O)[C@H](Cc2c[nH]c3ccccc23)NC(=O)[C@H](CC(=O)O)NC(=O)[C@H](CC(N)=O)NC(=O)[C@H](C(C)C)NC(=O)[C@H](C(C)C)NC1=O` (Ac-ICVVNDWGHHRCT-NH2; disulfide 2-12), 0.456. The same measure for `CC[C@H](C)[C@H](NC(C)=O)C(=O)N[C@H]1CSSC[C@@H](C(=O)N[C@H](C(N)=O)[C@@H](C)O)NC(=O)[C@H](C)NC(=O)[C@H](Cc2cnc[nH]2)NC(=O)[C@H](C)NC(=O)CNC(=O)[C@H](Cc2c[nH]c3ccccc23)NC(=O)[C@H](CC(=O)O)NC(=O)[C@H](CCC(N)=O)NC(=O)[C@H](C(C)C)NC(=O)[C@H](C(C)C)NC1=O` (Ac-ICVVQDWGAHACT-NH2; disulfide 2-12): 0.084. `CC[C@H](C)[C@H](NC(C)=O)C(=O)N[C@H]1CSSC[C@@H](C(=O)N[C@H](C(N)=O)[C@@H](C)O)NC(=O)[C@H](CCCNC(=N)N)NC(=O)[C@H](Cc2cnc[nH]2)NC(=O)[C@H](C)NC(=O)CNC(=O)[C@H](Cc2c[nH]c3ccccc23)NC(=O)[C@H](CC(=O)O)NC(=O)[C@H](CCC(N)=O)NC(=O)[C@H](C(C)C)NC(=O)[C@H](C(C)C)NC1=O` (Ac-ICVVQDWGAHRCT-NH2; disulfide 2-12) came in with a logIC50 of 0.617. Under `CC[C@H](C)[C@H](NC(=O)[C@@H]1CSSC[C@H](NC(=O)[C@@H](NC(C)=O)[C@@H](C)CC)C(=O)N[C@@H](C(C)C)C(=O)N[C@@H](C(C)C)C(=O)N[C@@H](CCC(N)=O)C(=O)N[C@@H](CC(=O)O)C(=O)N[C@@H](Cc2c[nH]c3ccccc23)C(=O)NCC(=O)N[C@@H](Cc2cnc[nH]2)C(=O)N[C@@H](Cc2cnc[nH]2)C(=O)N[C@@H](CCCNC(=N)N)C(=O)N1)C(N)=O` (Ac-ICVVQDWGHHRCI-NH2; disulfide 2-12) stands 0.574; under `CC[C@@H]1NC(=O)CNC(=O)[C@H](Cc2c[nH]c3ccccc23)NC(=O)[C@H](CC(=O)O)NC(=O)[C@H](CCC(N)=O)NC(=O)[C@H](Cc2c[nH]c3ccccc23)NC(=O)[C@H](C(C)C)NC(=O)[C@@H](NC(=O)[C@@H](NC(C)=O)[C@@H](C)CC)CSSC[C@@H](C(=O)N[C@H](C(N)=O)[C@@H](C)O)NC(=O)[C@H](CCCNC(=N)N)NC(=O)[C@H](Cc2cnc[nH]2)NC1=O` (Ac-ICVWQDWG[Abu]HRCT-NH2; disulfide 2-12), 1.55.

As for `CSCC[C@H](NC(C)=O)C(=O)N[C@H]1CSSC[C@@H](C(=O)N[C@@H](Cc2ccccc2)C(N)=O)NC(=O)[C@H](CCCNC(=N)N)NC(=O)[C@H](Cc2cnc[nH]2)NC(=O)CNC(=O)CNC(=O)[C@H](Cc2c[nH]c3ccccc23)NC(=O)[C@H](CC(=O)O)NC(=O)[C@H](CCC(N)=O)NC(=O)[C@H](Cc2cnc[nH]2)NC(=O)[C@H](C(C)C)NC1=O` (Ac-MCVHQDWGGHRCF-NH2; disulfide 2-12), the logIC50 was -0.863. `CC(=O)N[C@@H](CCCNC(=N)N)C(=O)N[C@H]1CSSC[C@@H](C(=O)N[C@H](C(N)=O)[C@@H](C)O)NC(=O)[C@H](CCCNC(=N)N)NC(=O)[C@H](Cc2cnc[nH]2)NC(=O)[C@H](Cc2cnc[nH]2)NC(=O)CNC(=O)[C@H](Cc2c[nH]c3ccccc23)NC(=O)[C@H](CC(=O)O)NC(=O)[C@H](CCC(N)=O)NC(=O)[C@H](C(C)C)NC(=O)[C@H](C(C)C)NC1=O` (Ac-RCVVQDWGHHRCT-NH2; disulfide 2-12) yielded a logIC50 of 0.176. For the compound `CC(C)[C@@H]1NC(=O)[C@H](C(C)C)NC(=O)[C@@H](N)CSSC[C@@H](C(=O)O)NC(=O)[C@H](CCCNC(=N)N)NC(=O)[C@H](Cc2cnc[nH]2)NC(=O)[C@H](C)NC(=O)CNC(=O)[C@H](Cc2c[nH]c3ccccc23)NC(=O)[C@H](CC(=O)O)NC(=O)[C@H](CCC(N)=O)NC1=O` (H-CVVQDWGAHRC-OH; disulfide 1-11), the logIC50 was -0.097. Under `CC(C)[C@@H]1NC(=O)[C@H](C(C)C)NC(=O)[C@@H](N)CSSC[C@@H](C(=O)O)NC(=O)[C@H](CCCNC(=N)N)NC(=O)[C@H](C)NC(=O)[C@H](Cc2cnc[nH]2)NC(=O)CNC(=O)[C@H](Cc2c[nH]c3ccccc23)NC(=O)[C@H](CC(=O)O)NC(=O)[C@H](CCC(N)=O)NC1=O` (H-CVVQDWGHARC-OH; disulfide 1-11) stands -0.79; under `CC(C)[C@@H]1NC(=O)[C@H](C(C)C)NC(=O)[C@@H](N)CSSC[C@@H](C(=O)O)NC(=O)[C@H](C)NC(=O)[C@H](Cc2cnc[nH]2)NC(=O)[C@H](Cc2cnc[nH]2)NC(=O)CNC(=O)[C@H](Cc2c[nH]c3ccccc23)NC(=O)[C@H](CC(=O)O)NC(=O)[C@H](CCC(N)=O)NC1=O` (H-CVVQDWGHHAC-OH; disulfide 1-11), -0.767; under `CC(C)[C@@H]1NC(=O)[C@H](C(C)C)NC(=O)[C@@H](N)CSSC[C@@H](C(N)=O)NC(=O)[C@H](CCCNC(=N)N)NC(=O)[C@H](Cc2cnc[nH]2)NC(=O)[C@H](Cc2cnc[nH]2)NC(=O)CNC(=O)[C@H](Cc2c[nH]c3ccccc23)NC(=O)[C@H](CC(=O)O)NC(=O)[C@H](CCC(N)=O)NC1=O` (H-CVVQDWGHHRC-NH2; disulfide 1-11), -0.439. The same measure for `CC(C)[C@@H]1NC(=O)[C@H](C(C)C)NC(=O)[C@@H](N)CSSC[C@@H](C(=O)O)NC(=O)[C@H](CCCNC(=N)N)NC(=O)[C@H](Cc2cnc[nH]2)NC(=O)[C@H](Cc2cnc[nH]2)NC(=O)CNC(=O)[C@H](Cc2c[nH]c3ccccc23)NC(=O)[C@H](CC(=O)O)NC(=O)[C@H](CCC(N)=O)NC1=O` (H-CVVQDWGHHRC-OH; disulfide 1-11): -0.439; for `CC(C)[C@@H]1NC(=O)[C@H](C(C)C)NC(=O)[C@@H](N)CSSC[C@@H](C(=O)N[C@H](C(N)=O)[C@@H](C)O)NC(=O)[C@H](CCCNC(=N)N)NC(=O)[C@H](Cc2cnc[nH]2)NC(=O)[C@H](Cc2cnc[nH]2)NC(=O)CNC(=O)[C@H](Cc2c[nH]c3ccccc23)NC(=O)[C@H](CC(=O)O)NC(=O)[C@H](CCC(N)=O)NC1=O` (H-CVVQDWGHHRCT-NH2; disulfide 1-11): -0.319; for `CC(C)[C@@H]1NC(=O)[C@@H](NC(=O)[C@@H](N)CC(=O)O)CSSC[C@@H](C(=O)N[C@H](C(N)=O)[C@@H](C)O)NC(=O)[C@H](CCCCN)NC(=O)[C@H](Cc2cnc[nH]2)NC(=O)[C@H](Cc2cnc[nH]2)NC(=O)CNC(=O)[C@H](Cc2c[nH]c3ccccc23)NC(=O)[C@H](CC(=O)O)NC(=O)[C@H](CCC(N)=O)NC(=O)[C@H](C(C)C)NC1=O` (H-DCVVQDWGHHKCT-NH2; disulfide 2-12): -0.264.

Values taken from ChEMBL document CHEMBL1140602, “A simple, yet highly accurate, QSAR model captures the complement inhibitory activity of compstatin” (Bioorg Med Chem, 2007).
